Data from patent publication US12162892B2, “CD16a binding agents and uses thereof” (KLEO PHARMACEUTICALS, INC., priority 2018, dated 2024).
pKd: −log10 of the molar value. Several values for one entry are separate records, joined by “and”; a condition that tells them apart may be missing. Identical values can stand only once.

Assays:
Assay type in all cases: binding
[1] = system: CD16a158V; assay: NHS-Ester ELISA Assay; settings: NHS-Ester ligands 250 μM; 10 nM biotinylated CD16a protein
Procedure: (§1) Pretreat ELISA plates (Costar 3922) using 200 μl […] (BSA, Heat Shock, Fraction V-American Bio AB01088-00100) in PBS for 2 hours at 25° C. with moderate shaking. BSA was removed and plates were washed. NHS-Ester ligands were diluted in PBS to 250 μM then added (100 μl/well) and incubated for 1 hour at 37° C. […] Plates are removed from the incubator and washed. CD16a/Streptavidin.HRP mixture was added to the plates (100 μl/well) and incubated for 1 hour at 25° C. with gentle shaking. Wash plates. Substrate (Super Signal ELISA Pico Chemiluminescent Substrate-Thermo 37069) was added (100 μl/well) and plates were incubated for 5 minutes at 25° C. with gentle shaking. Luminescence was then measured on the Biotek Synergy H1 microplate reader.

[2] = molecular target: T1, CD16a158F (Homo sapiens, UniProt P08637); assay: NHS-Ester ELISA Assay; parameters: purchased Acro Biosystems CDA-H82E8; settings: NHS-Ester ligands 250 μM; 10 nM biotinylated CD16a protein
Procedure: as §1

[3] = molecular target: T1, CD16a158F; assay: Biotin ELISA, interaction with various receptors (Example 55); settings: three replicate values per compound
Procedure: (§2) Coat ELISA plates (Costar 3922) using Neutravidin (Thermo 31000) at 5 μg/ml (100 μl/well) for 1 hour at 37° C. Plates were washed 4 times with PBST (PBS, 0.05% Tween 20-200 μl, 1 minute/wash) then blocked using 200 μl 5% bovine serum albumin (BSA, Heat Shock, Fraction V-American Bio AB01088-00100) in PBST for 2 hours at 25° C. with moderate shaking. BSA was removed and plates were washed. Biotinylated ligands diluted in PBSTB (PBST+0.1% BSA) were then added (100 μl/well) and incubated for 1 hour at 25° C. with gentle shaking. Ligands were removed and plates were washed. Any remaining unoccupied neutravidin binding sites were blocked by adding 100 μM Biotin (Fisher BP232-1) (100 μl/well) and incubated for 1 hour at 25° C. with gentle shaking. Plates were then washed. […] Protein was removed and plates were washed. Streptavidin-HRP (Invitrogen 434323) diluted 1:5000 in PBSTB was added (100 μl/well) and incubated for 1 hour at 25° C. with gentle shaking. Wash plates. Substrate (Super Signal ELISA Pico Chemiluminescent Substrate-Thermo 37069) was added (100 μl/well) and plates were incubated for 5 minutes at 25° C. with gentle shaking. Luminescence was then measured on the Biotek Synergy H1 microplate reader.
(§3) Using similar methods as Examples 47 or 53, interactions with a number of receptors were measured. In some embodiments, “stock” is antibody only, and “control” is an antibody that went through the same procedure except using DMSO only as opposed to a compound. When contacted with targeting moieties such as antibodies in the Examples, compounds, e.g., I-95, I-96, etc. can react through their reactive groups

[4] = molecular target: T2, CD16a158V (Homo sapiens, UniProt P08637, F176V); assay: as above; settings: three replicate values per compound
Procedure: as §2, §3

[5] = molecular target: T3, CD32a H167 (Homo sapiens, UniProt P12318); assay: as above; settings: three replicate values per compound
T3 sequence (P12318 36-218 limits assumed): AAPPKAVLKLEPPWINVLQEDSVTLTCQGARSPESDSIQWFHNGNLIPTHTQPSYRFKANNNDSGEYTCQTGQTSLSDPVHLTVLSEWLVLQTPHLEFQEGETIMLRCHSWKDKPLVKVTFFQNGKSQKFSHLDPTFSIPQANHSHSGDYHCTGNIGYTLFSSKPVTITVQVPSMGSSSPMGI
Procedure: as §2, §3

[6] = system: CD32a-R167; assay: as above; settings: three replicate values per compound
Procedure: as §2, §3

[7] = molecular target: T4, CD32b (Homo sapiens, UniProt P31994); assay: as above; settings: three replicate values per compound
T4 sequence (P31994 43-310): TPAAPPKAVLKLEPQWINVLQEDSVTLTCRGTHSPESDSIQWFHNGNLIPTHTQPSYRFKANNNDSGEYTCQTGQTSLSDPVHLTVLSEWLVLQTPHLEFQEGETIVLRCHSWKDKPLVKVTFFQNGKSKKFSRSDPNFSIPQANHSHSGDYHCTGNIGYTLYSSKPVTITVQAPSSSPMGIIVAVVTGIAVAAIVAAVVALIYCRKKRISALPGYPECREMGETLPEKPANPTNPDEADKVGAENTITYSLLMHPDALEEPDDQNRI
Procedure: as §2, §3

[8] = molecular target: CD3ed (Homo sapiens, UniProt P04234+P07766); assay: as above; settings: three replicate values per compound
Procedure: as §2, §3

[9] = molecular target: CD64 (Homo sapiens, UniProt P12314); assay: as above; settings: three replicate values per compound
Procedure: as §2, §3

[10] = Biotin ELISA, No Protein (Example 55); settings: three replicate values per compound
Procedure: as §2, §3

[11] = molecular target: T2, CD16a158V; assay: Biotinylated Ligand ELISA Assay; settings: Biotinylated CD16a protein at 10 nM
Procedure: as §2

[12] = molecular target: T1, CD16a158F; assay: Biotinylated Ligand ELISA Assay; parameters: purchased Acro Biosystems CDA-H82E8; settings: Biotinylated CD16a protein at 10 nM
Procedure: as §2

[13] = molecular target: T2, CD16a158V; assay: Microscale Thermophoresis; settings: read-out: MST-CD16a158V KD
Procedure: Target proteins (poly-histidine tagged, 600 nM) were fluorescently labeled combination with an equal volume of dye (200 nM, His-Tag labeling kit RED-tris-NTA NanoTemper: MO-L008) PBST. The mixture rotated in the dark for 45 min before being spun down at 12000 rpm for 15 min to remove uncomplexed material. The fluorescence of the removed supernatant was adjusted to for a test concentration of 40-80 nM (2× the final measured). Test ligands were prepared across a 12-point dilution series in a 96-well PCR plate at a volume of 20 uL at 2× the concentration desired for testing (0.2% BSA in PBST). The dilution series was then combined with an equal volume of the labeled target at 2× the concentration desired for testing. Capillaries were added to the wells of the combined target/ligand complex and measured by MST. Measurements were taken using a Nanotemper Monolith NT.115, and the data was analyzed using NanoTemper MO.Control software.

T1 sequence (P08637 17-208 limits assumed): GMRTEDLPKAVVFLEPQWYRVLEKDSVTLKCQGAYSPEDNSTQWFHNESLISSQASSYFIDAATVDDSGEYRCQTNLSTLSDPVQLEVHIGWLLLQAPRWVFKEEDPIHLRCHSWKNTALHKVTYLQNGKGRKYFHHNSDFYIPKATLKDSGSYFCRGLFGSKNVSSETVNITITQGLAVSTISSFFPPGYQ
CD3ed, sequence (P07766 23-126 limits assumed): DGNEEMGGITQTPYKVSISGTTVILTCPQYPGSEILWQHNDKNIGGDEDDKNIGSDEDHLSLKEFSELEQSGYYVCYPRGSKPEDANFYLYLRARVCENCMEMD
CD3ed, sequence (P04234 22-105 limits assumed): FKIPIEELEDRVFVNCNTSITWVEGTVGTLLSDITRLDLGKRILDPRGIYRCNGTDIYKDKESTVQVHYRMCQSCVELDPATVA
T2 sequence (P08637 17-208 F176V): as the sequence (P08637 17-208 limits assumed) above, with F160V counted along it
CD64, sequence (P12314 16-374): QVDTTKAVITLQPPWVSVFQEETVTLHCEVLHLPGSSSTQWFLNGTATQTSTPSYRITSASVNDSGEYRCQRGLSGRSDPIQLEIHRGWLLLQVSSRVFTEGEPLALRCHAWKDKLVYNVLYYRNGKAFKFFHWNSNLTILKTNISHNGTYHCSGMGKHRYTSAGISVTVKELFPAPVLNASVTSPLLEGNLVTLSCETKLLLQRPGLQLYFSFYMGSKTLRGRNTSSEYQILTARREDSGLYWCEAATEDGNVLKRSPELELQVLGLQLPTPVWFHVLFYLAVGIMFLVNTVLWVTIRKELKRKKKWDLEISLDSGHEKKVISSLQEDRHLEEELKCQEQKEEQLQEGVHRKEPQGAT

Structure (SMILES) | NHS ester ELISA-CD16a158V Binding (RLU) [1] | NHS ester ELISA-CD16a158F Binding (RLU) [2] | pKd [13] | also measured
COc1ccc(OC)c(N2C(=O)NC3(CCN(C(=O)Nc4cccc(-c5cn(CCOCCOCCOCCOCCOCCOCCOCCOCCOCCOCCOCCOCCC(=O)ON6C(=O)CCC6=O)nn5)c4)CC3)C2=O)c1 [Compound I-1] | C (a relative luminescence value (RLU) of 1,000-10,000) | B (a relative luminescence value (RLU) of 10,000-100,000) |  | 
O=C(CCOCCOCCOCCOCCOCCOCCOCCOCCOCCOCCOCCOCCn1cc(-c2ccc(NC(=O)N3CCC4(CC3)NC(=O)N(Cc3ccccc3)C4=O)cc2)nn1)ON1C(=O)CCC1=O [Compound I-2] | C (a relative luminescence value (RLU) of 1,000-10,000) | B (a relative luminescence value (RLU) of 10,000-100,000) |  | 
O=C(CCOCCOCCOCCOCCOCCOCCOCCOCCOCCOCCOCCOCCn1cc(-c2cccc(-c3cnc(N4CCC5(CC4)NC(=O)N(Cc4ccccc4)C5=O)nc3)c2)nn1)ON1C(=O)CCC1=O [Compound I-6] | B (a relative luminescence value (RLU) of 10,000-100,000) | B (a relative luminescence value (RLU) of 10,000-100,000) |  | 
O=C(CCOCCOCCOCCOCCOCCOCCOCCOCCOCCOCCOCCOCCn1cc(-c2cnc(N3CCC4(CC3)NC(=O)N(Cc3ccccc3)C4=O)nc2)nn1)ON1C(=O)CCC1=O [Compound I-7] | B (a relative luminescence value (RLU) of 10,000-100,000) | C (a relative luminescence value (RLU) of 1,000-10,000) |  | 
O=C(CCOCCOCCOCCOCCOCCOCCOCCOCCOCCOCCOCCOCCNC(=O)c1cnc(N2CCC3(CC2)NC(=O)N(Cc2ccccc2)C3=O)nc1)ON1C(=O)CCC1=O [Compound I-8] | B (a relative luminescence value (RLU) of 10,000-100,000) | C (a relative luminescence value (RLU) of 1,000-10,000) |  | 
O=C(CCOCCOCCOCCOCCOCCOCCOCCOCCOCCOCCOCCOCCn1cc(-c2cccc(NC(=O)N3CCC4(CC3)NC(=O)N(c3ccccc3)C4=O)c2)nn1)ON1C(=O)CCC1=O [Compound I-9] | B (a relative luminescence value (RLU) of 10,000-100,000) | B (a relative luminescence value (RLU) of 10,000-100,000) |  | 
O=C(CCCC[C@@H]1SC[C@@H]2NC(=O)N[C@@H]21)NCCOCCOCCOCCOCCOCCOCCOCCOCCNC(=O)c1cnc(N2CCC3(CC2)NC(=O)N(c2ccccc2)C3=O)s1 [Compound I-13, 5-[(3aS,4S,6aR)-2-oxo-hexahydro-1H-thieno[3,4-d]imidazol-4-yl]-N-{26-[(2-{2,4-dioxo-3-phenyl-1,3,8-triazaspiro[4.5]decan-8-yl}-1,3-thiazol-5-yl)formamido]-3,6,9,12,15,18,21,24-octaoxahexacosan-1-yl}pentanamide] |  |  |  | Biotin ELISA Results CD16a-158F [3]: 10817 and 15276 and 9605; Biotin ELISA Results CD16a-158V [4]: 4673 and 4920 and 4565; Biotin ELISA Results CD32a-H167 [5]: 15516 and 14898 and 8681; Biotin ELISA Results CD32a-R167 [6]: 8032 and 6483 and 10638; Biotin ELISA Results CD32b [7]: 7721 and 7105 and 9481; Biotin ELISA Results CD3ed [8]: 4252 and 15476 and 72836*; Biotin ELISA Results CD64 [9]: 45845 and 36876 and 49943; Biotin ELISA Results No Protein [10]: 6804 and 19233 and 14386
O=C(CCCC[C@@H]1SC[C@@H]2NC(=O)N[C@@H]21)NCCOCCOCCOCCOCCOCCOCCOCCOCCNC(=O)c1ccc(S(=O)(=O)N2CCC3(CC2)NC(=O)N(c2ccccc2)C3=O)cc1 [Compound I-22] |  |  |  | Biotinylated Ligand ELISA-CD16a158V Binding (RLU) [11]: B (a relative luminescence value (RLU) of 10,000-100,000); Biotinylated Ligand ELISA-CD16a158F Binding (RLU) [12]: B (a relative luminescence value (RLU) of 10,000-100,000)
COc1ccc(OC)c(N2CC(C(=O)Nc3ccc(-c4cn(CCOCCOCCOCCOCCOCCOCCOCCOCCOCCOCCOCCOCCC(=O)ON5C(=O)CCC5=O)nn4)cc3)CC2=O)c1 (stereo not drawn) [Compound I-25] | C (a relative luminescence value (RLU) of 1,000-10,000) | C (a relative luminescence value (RLU) of 1,000-10,000) |  | 
COc1ccc(OC)c(N2CC(C(=O)Nc3ccc(-c4cn(CCOCCOCCOCCOCCOCCOCCOCCOCCC(=O)ON5C(=O)CCC5=O)nn4)cc3)CC2=O)c1 (stereo not drawn) [Compound I-26] | C (a relative luminescence value (RLU) of 1,000-10,000) | C (a relative luminescence value (RLU) of 1,000-10,000) |  | 
COc1ccc(N2CC(C(=O)Nc3ccc(-c4cn(CCOCCOCCOCCOCCOCCOCCOCCOCCNC(=O)CCCC[C@@H]5SC[C@@H]6NC(=O)N[C@@H]65)nn4)cc3)CC2=O)cc1 (stereo partly drawn) [Compound I-33] |  |  | 6.30 to 7.00 | 
COc1cccc(N2CC(C(=O)Nc3ccc(-c4cn(CCOCCOCCOCCOCCOCCOCCOCCOCCNC(=O)CCCC[C@@H]5SC[C@@H]6NC(=O)N[C@@H]65)nn4)cc3)CC2=O)c1 (stereo partly drawn) [Compound I-34] |  |  | 6.30 to 7.00 | 
COc1ccccc1N1CC(C(=O)Nc2ccc(-c3cn(CCOCCOCCOCCOCCOCCOCCOCCOCCNC(=O)CCCC[C@@H]4SC[C@@H]5NC(=O)N[C@@H]54)nn3)cc2)CC1=O (stereo partly drawn) [Compound I-35] |  |  | 6.30 to 7.00 | 
CCOc1ccc(N2CC(C(=O)N3CCC(C(=O)NCCOCCOCCOCCOCCOCCOCCOCCOCCNC(=O)CCCC[C@@H]4SC[C@@H]5NC(=O)N[C@@H]54)CC3)CC2=O)cc1 (stereo partly drawn) [Compound I-37] |  |  | 6.00 to 6.30 | 
COc1ccc(OC)c(N2CC(C(=O)Nc3ccc(Cn4cnc(CCOCCOCCOCCOCCOCCOCCOCCOCCNC(=O)CCCC[C@@H]5SC[C@@H]6NC(=O)N[C@@H]65)n4)cc3)CC2=O)c1 (stereo partly drawn) [Compound I-38] |  |  | 6.30 to 7.00 | 
COc1ccc(OC)c(N2CC(C(=O)Nc3cccc(-c4cn(CCOCCOCCOCCOCCOCCOCCOCCOCCNC(=O)CCCC[C@@H]5SC[C@@H]6NC(=O)N[C@@H]65)nn4)c3)CC2=O)c1 (stereo partly drawn) [Compound I-40] |  |  | 6.30 to 7.00 | 
COc1ccc(OC)c(N2CC(C(=O)Nc3ccc(CC4N=NC(COCCOCCOCCOCCOCCOCCOCCOCCNC(=O)CCCC[C@@H]5SC[C@@H]6NC(=O)N[C@@H]65)=N4)cc3)CC2=O)c1 (stereo partly drawn) [Compound I-41] |  |  | 6.00 to 6.30 | 
